Where a chain is given by its changes, count along the chain named.

Test in all cases: isothermal titration calorimetry
What all share (type): binding

Assay [1] deals with T1, yYkt6ΔC (Saccharomyces cerevisiae, UniProt P36015, S176D).
T1 construct: gene YKT6; residues 1-195, C-terminal CCIIM motif removed; His6 tag; pET-M3C; E. coli BL21(DE3); not lipidated
T1 sequence (P36015 1-195 S176D): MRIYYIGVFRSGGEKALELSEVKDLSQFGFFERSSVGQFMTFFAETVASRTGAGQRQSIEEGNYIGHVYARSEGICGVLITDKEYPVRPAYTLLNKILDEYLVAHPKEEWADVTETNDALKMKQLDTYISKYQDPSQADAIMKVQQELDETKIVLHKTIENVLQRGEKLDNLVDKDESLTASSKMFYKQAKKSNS
The note with it: 50 mM Tris pH 8.0, 100 mM NaCl, 1 mM EDTA, 1 mM β-mercaptoethanol, 25 °C.

For assay [2], the target named is T2, yYkt6ΔC (Saccharomyces cerevisiae, UniProt P36015, T46L/Q57A/L169A).
T2 construct: gene YKT6; residues 1-195, C-terminal CCIIM motif removed; His6 tag; pET-M3C; E. coli BL21(DE3); not lipidated
T2 sequence (P36015 1-195 T46L/Q57A/L169A): T1 sequence (P36015 1-195 S176D) with T46L, Q57A, L169A, D176S
The note with it: 50 mM Tris pH 8.0, 100 mM NaCl, 1 mM EDTA, 1 mM β-mercaptoethanol, 25 °C.

Assay [3] deals with T3, yYkt6ΔC (Saccharomyces cerevisiae, UniProt P36015).
T3 construct: gene YKT6; residues 1-195, C-terminal CCIIM motif removed; His6 tag; pET-M3C; E. coli BL21(DE3); not lipidated
T3 sequence (P36015 1-195): T1 sequence (P36015 1-195 S176D) with D176S
The note with it: 50 mM Tris pH 8.0, 100 mM NaCl, 1 mM EDTA, 1 mM β-mercaptoethanol, 25 °C.

The target in assay [4] is T4, yYkt6ΔC (Saccharomyces cerevisiae, UniProt P36015, Q57A/T46L).
T4 construct: gene YKT6; residues 1-195, C-terminal CCIIM motif removed; His6 tag; pET-M3C; E. coli BL21(DE3); not lipidated
T4 sequence (P36015 1-195 T46L/Q57A): T1 sequence (P36015 1-195 S176D) with T46L, Q57A, D176S

Assay [5] has as its target T5, yYkt6ΔC (Saccharomyces cerevisiae, UniProt P36015, T46L/Q57A/L172A).
T5 construct: gene YKT6; residues 1-195, C-terminal CCIIM motif removed; His6 tag; pET-M3C; E. coli BL21(DE3); not lipidated
T5 sequence (P36015 1-195 T46L/Q57A/L172A): T1 sequence (P36015 1-195 S176D) with T46L, Q57A, L172A, D176S
The following applies: 50 mM Tris pH 8.0, 100 mM NaCl, 1 mM EDTA, 1 mM β-mercaptoethanol, 25 °C.

For assay [6], the target named is T6, rYkt6ΔC (Rattus norvegicus, UniProt Q5EGY4).
T6 construct: gene Ykt6; residues 1-193, C-terminal CCAIM motif removed; His6 tag; pET-M3C; E. coli BL21(DE3); not lipidated
T6 sequence (Q5EGY4 1-193): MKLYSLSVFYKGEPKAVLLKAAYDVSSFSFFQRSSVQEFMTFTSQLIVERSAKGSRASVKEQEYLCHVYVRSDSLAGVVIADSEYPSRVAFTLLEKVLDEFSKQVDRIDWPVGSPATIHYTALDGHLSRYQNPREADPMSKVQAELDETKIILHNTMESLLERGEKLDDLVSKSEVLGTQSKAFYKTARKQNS

Assay [7] addresses T7, rYkt6ΔC (Rattus norvegicus, UniProt Q5EGY4, S174D).
T7 construct: gene Ykt6; residues 1-193, C-terminal CCAIM motif removed; His6 tag; pET-M3C; E. coli BL21(DE3); not lipidated
T7 sequence (Q5EGY4 1-193 S174D): T6 sequence (Q5EGY4 1-193) with S174D
The following applies: 50 mM Tris pH 8.0, 100 mM NaCl, 1 mM EDTA, 1 mM β-mercaptoethanol, 25 °C.

In general, Kd refers to the concentration at which binding is half-saturated. Consider `CCCCCCCCCCCCOP(=O)([O-])OCC[N+](C)(C)C` [DPC, dodecylphosphocholine], for which the no binding entry at yYkt6ΔC [1] was “the phospho-mutant yYkt6ΔC-S176D could not bind DPC either”; at yYkt6ΔC [2] it was “ITC measurements showed that these mutations disrupt the binding with DPC”; on yYkt6ΔC [3] it was “It turns out that DPC could not bind to yYkt6ΔC”; on yYkt6ΔC [5], “ITC measurements showed that these mutations disrupt the binding with DPC”; on rYkt6ΔC [7], “ITC experiments showed that DPC could not bind to rYkt6ΔC-S174D mutant”. The Kd is 33.3 µM on yYkt6ΔC [4] and 38.5 µM on rYkt6ΔC [6].

The values are drawn from PMC10388204, “Different conformational dynamics of SNARE protein Ykt6 among yeast and mammals” (The Journal of Biological Chemistry, 2023).
